Assay results: US7696129B2, “Substituted aromatic amide derivative, intermediate thereof, agrohorticultural insecticide containing thereof and method for the use thereof” (Nihon Nohyaku Co., Ltd., priority 2001, dated 2010)

Tests used:
Type in all cases: in vivo
[1] = test system: Common Cutworm (Spodoptera litura); experiment: Test Example 2: insecticidal effect on common cutworm, cabbage leaf immersion; conditions: 50 ppm, cabbage leaf immersed about 30 seconds, second-instar larvae, 25° C., eight days after the inoculation
Text: Insecticidal Effect on Common Cutworm (Spodoptera litura)
A piece of cabbage leaf (cultivar; Shikidori) was immersed for about 30 seconds in a liquid chemical prepared by diluting a preparation containing each compound listed in Tables 4 to 9 as an active ingredient to adjust the concentration to 50 ppm. After air-dryness, it was placed in a plastic Petri dish with a diameter of 9 cm and inoculated with second-instar larvae of common cutworm, after which the dish was closed and then allowed to stand in a room thermostatted at 25° C. Eight days after the inoculation, the dead and alive were counted. The mortality was calculated according to the following equation and the insecticidal effect was judged according to the criterion shown in Test Example 1. The test was carried out with triplicate groups of 10 insects.

[2] = test system: Smaller Tea Tortrix (Adxophyes sp.); experiment: Test Example 3: insecticidal effect on smaller tea tortrix, tea leaf immersion; conditions: 50 ppm, tea leaves immersed about 30 seconds, larvae, 25° C., humidity 70%, eight days after the inoculation
Procedure: Insecticidal Effect on Smaller Tea Tortrix (Adxophyes sp.)
Tea leaves were immersed for about 30 seconds in a liquid chemical prepared by diluting a preparation containing each compound listed in Tables 1 to 3 as an active ingredient to adjust the concentration to 50 ppm. After air-dryness, the tea leaves were placed in a plastic Petri dish with a diameter of 9 cm and inoculated with larvae of smaller tea tortrix, after which the dish was allowed to stand in a room thermostatted at 25° C. and having a humidity of 70%. Eight days after the inoculation, the dead and alive were counted and the insecticidal effect was judged according to the criterion shown in Test Example 1. The test was carried out with triplicate groups of 10 insects.

[3] = test system: Diamond Back Moth (Plutella xylostella); experiment: Test Example 1: insecticidal effect on diamond back moth, immersion of Chinese cabbage seedling with eggs; conditions: 50 ppm, seedling with eggs immersed about 30 seconds, 25° C., six days after the immersion
Text: Insecticidal Effect on Diamond Back Moth (Plutella xylostella)
Adult diamond back moths were released and allowed to oviposit on a Chinese cabbage seedling. Two days after the release, the seedling having the eggs deposited thereon was immersed for about 30 seconds in a liquid chemical prepared by diluting a preparation containing each compound listed in Tables 4 to 9 as an active ingredient to adjust the concentration to 50 ppm. After air-dryness, it was allowed to stand in a room thermostatted at 25° C. Six days after the immersion, the hatched insects were counted. The mortality was calculated according to the following equation and the insecticidal effect was judged according to the criterion shown below. The test was carried out with triplicate groups of 10 insects.

SMILES	Test Example 2 (insecticidal effect, mortality criterion) [1]	Test Example 3 (insecticidal effect, mortality criterion) [2]	Test Example 1 (insecticidal effect, mortality criterion) [3]
Cc1ccccc1CNC(=O)OCC(C)NC(=O)c1c(I)cccc1C(=O)Nc1ccc(C(C(F)(F)F)C(F)(F)F)cc1C (stereo not drawn) [5-34]	A (Mortality 100%)	A (Mortality 100%)	A (Mortality 100%)
Cc1cc(C(C(F)(F)F)C(F)(F)F)ccc1NC(=O)c1cccc(I)c1C(=O)NC(C)COC(=O)NCc1ccc(C(F)(F)F)cc1 (stereo not drawn) [5-35]	A (Mortality 100%)	A (Mortality 100%)	A (Mortality 100%)
Cc1ccc(CNC(=O)OCC(C)NC(=O)c2c(I)cccc2C(=O)Nc2ccc(C(C(F)(F)F)C(F)(F)F)cc2C)cc1 (stereo not drawn) [5-36]	E (Mortality 49% or less)	A (Mortality 100%)	A (Mortality 100%)
Cc1cc(C(C(F)(F)F)C(F)(F)F)ccc1NC(=O)c1cccc(I)c1C(=O)NC(C)COC(=O)NCc1ccc(Cl)cc1 (stereo not drawn) [5-37]	A (Mortality 100%)	A (Mortality 100%)	A (Mortality 100%)
COc1ccc(CNC(=O)OCC(C)NC(=O)c2c(I)cccc2C(=O)Nc2ccc(C(C(F)(F)F)C(F)(F)F)cc2C)cc1 (stereo not drawn) [5-38]	A (Mortality 100%)	A (Mortality 100%)	A (Mortality 100%)
CSCC(C)NC(=O)c1c(I)cccc1C(=O)Nc1ccc(C(C(F)(F)F)C(F)(F)F)cc1C (stereo not drawn) [5-39]	A (Mortality 100%)	A (Mortality 100%)	A (Mortality 100%)
CC(=O)NCC(C)(C)NC(=O)c1c(I)cccc1C(=O)Nc1ccc(C(C(F)(F)F)C(F)(F)F)cc1C [5-40]	A (Mortality 100%)	A (Mortality 100%)	A (Mortality 100%)
CSCC(C)(C)NC(=O)c1c(C(=O)Nc2ccc(C(C(F)(F)F)C(F)(F)F)cc2C)cccc1C(F)(F)F [5-41]	A (Mortality 100%)	A (Mortality 100%)	A (Mortality 100%)
Cc1cc(C(C(F)(F)F)C(F)(F)F)ccc1NC(=O)c1cccc(C(F)(F)F)c1C(=O)NC(C)(C)C[S+](C)[O-] (stereo not drawn) [5-42]	A (Mortality 100%)	A (Mortality 100%)	A (Mortality 100%)
Cc1cc(C(C(F)(F)F)C(F)(F)F)ccc1NC(=O)c1cccc(C(F)(F)F)c1C(=O)NC(C)(C)CS(C)(=O)=O [5-43]	A (Mortality 100%)	A (Mortality 100%)	A (Mortality 100%)
CCN(CC)C(=O)OCC(C)NC(=O)c1c(C(=O)Nc2ccc(C(C(F)(F)F)C(F)(F)F)cc2C)cccc1C(F)(F)F (stereo not drawn) [5-44]	A (Mortality 100%)	A (Mortality 100%)	A (Mortality 100%)
CSCC(C)(C)NC(=O)c1c(C(=O)Nc2ccc(C(C(F)(F)F)C(F)(F)F)cc2C)ccc(Cl)c1Cl [5-45]	A (Mortality 100%)	A (Mortality 100%)	A (Mortality 100%)
CCc1cc(C(C(F)(F)F)C(F)(F)F)ccc1NC(=O)c1cccc(I)c1C(=O)NC(C)C [5-46]	A (Mortality 100%)	A (Mortality 100%)	A (Mortality 100%)
CCc1cc(C(C(F)(F)F)C(F)(F)F)ccc1NC(=O)c1cccc(I)c1C(=O)NC(C)(C)CSC [5-47]	A (Mortality 100%)	A (Mortality 100%)	A (Mortality 100%)
CSCC(C)(C)NC(=O)c1c(I)cccc1C(=O)Nc1ccc(C(C(F)(F)F)C(F)(F)F)cc1C(C)(C)C [5-48]	E (Mortality 49% or less)	E (Mortality 49% or less)	A (Mortality 100%)
C[S+]([O-])CC(C)(C)NC(=O)c1c(I)cccc1C(=O)Nc1ccc(C(C(F)(F)F)C(F)(F)F)cc1C(C)(C)C (stereo not drawn) [5-49]	E (Mortality 49% or less)	E (Mortality 49% or less)	A (Mortality 100%)
CC(C)NC(=O)c1c(I)cccc1C(=O)Nc1ccc(C(C(F)(F)F)C(F)(F)F)cc1F [5-50]	A (Mortality 100%)	A (Mortality 100%)	A (Mortality 100%)
CC(C)NC(=O)c1c(I)cccc1C(=O)Nc1ccc(C(C(F)(F)F)C(F)(F)F)cc1Cl [5-51]	A (Mortality 100%)	A (Mortality 100%)	A (Mortality 100%)
CSCC(C)(C)NC(=O)c1c(I)cccc1C(=O)Nc1ccc(C(C(F)(F)F)C(F)(F)F)cc1Cl [5-52]	A (Mortality 100%)	A (Mortality 100%)	A (Mortality 100%)
CSCC(C)(C)NC(=O)c1c(I)cccc1C(=O)Nc1ccc(C(C(F)(F)F)C(F)(F)F)cc1Br [5-53]	A (Mortality 100%)	A (Mortality 100%)	A (Mortality 100%)
C[S+]([O-])CC(C)(C)NC(=O)c1c(I)cccc1C(=O)Nc1ccc(C(C(F)(F)F)C(F)(F)F)cc1Br (stereo not drawn) [5-54]	A (Mortality 100%)	A (Mortality 100%)	A (Mortality 100%)
CSCC(C)(C)NC(=O)c1c(I)cccc1C(=O)Nc1ccc(C(C(F)(F)F)C(F)(F)F)cc1I [5-55]	A (Mortality 100%)	A (Mortality 100%)	A (Mortality 100%)
C[S+]([O-])CC(C)(C)NC(=O)c1c(I)cccc1C(=O)Nc1ccc(C(C(F)(F)F)C(F)(F)F)cc1I (stereo not drawn) [5-56]	C (Mortality 89-80%)	A (Mortality 100%)	A (Mortality 100%)
CSCC(C)(C)NC(=O)c1c(I)cccc1C(=O)Nc1ccc(C(C(F)(F)F)C(F)(F)F)cc1C#N [5-57]	A (Mortality 100%)	A (Mortality 100%)	A (Mortality 100%)
C[S+]([O-])CC(C)(C)NC(=O)c1c(I)cccc1C(=O)Nc1ccc(C(C(F)(F)F)C(F)(F)F)cc1C#N (stereo not drawn) [5-58]	A (Mortality 100%)	A (Mortality 100%)	A (Mortality 100%)
CC(C)(CS(C)(=O)=O)NC(=O)c1c(I)cccc1C(=O)Nc1ccc(C(C(F)(F)F)C(F)(F)F)cc1C#N [5-59]	A (Mortality 100%)	A (Mortality 100%)	A (Mortality 100%)
Cc1c(NC(=O)c2cccc(I)c2C(=O)NC(C)C)ccc(C(C(F)(F)F)C(F)(F)F)c1F [5-60]	A (Mortality 100%)	A (Mortality 100%)	A (Mortality 100%)
CSCC(C)(C)NC(=O)c1c(I)cccc1C(=O)Nc1ccc(C(C(F)(F)F)C(F)(F)F)c(F)c1C [5-61]	A (Mortality 100%)	A (Mortality 100%)	A (Mortality 100%)
